Measurements taken from patent US11214803B2, “Modulators of YAP1 expression” (Ionis Pharmaceuticals, Inc., priority 2019, dated 2022).
Strand notation (5' to 3'): a small letter for the sugar, then the base; units joined by * are phosphorothioate-linked, units joined directly phosphodiester-linked; [ ] holds rarer units or linkages, { } end groups; capitals alone tell only the bases. k = constrained ethyl (cEt); [5mC] = 5-methylcytosine; d = 2'-deoxy (DNA)

Columns and labels:
Yap1 mRNA [1] = test: Yap1 mRNA in NCI H747 cells, RNA analysis (Example 31); format: cell-based, human; details: free uptake, approximately 48 hours
Experimental: Modified oligonucleotides described in the studies above were tested at various doses in colorectal adenocarcinoma cell line NCI H747. A control oligonucleotide 792169 was also tested.
Cultured NCI H747 cells at a density of 10,000 cells per well were treated using free uptake with modified oligonucleotides diluted to concentrations described in the tables below. After approximately 48 hours, Yap1 mRNA levels were measured as previously described using the Human Yap1 primer-probe set RTS4814. Yap1 mRNA levels were normalized to actin-beta content, as measured by primer probe set RTS5002. Results are presented in the tables below as percent control of the amount of Yap1 mRNA relative to untreated control cells (% UTC).

Yap1 mRNA [2] = test: Yap1 mRNA in CAL33 cells, RNA analysis (Example 36); format: cell-based, human; details: free uptake, approximately 48 hours
Experimental: (§1) Modified oligonucleotides described in the studies above were tested at various doses in tongue squamous cell carcinoma line CAL33. A control oligonucleotide 792169, described herein above, was also tested.
Cultured CAL33 cells at a density of 5000 cells per well were treated using free uptake with modified oligonucleotides diluted to concentrations described in the tables below. After approximately 48 hours, Yap1 mRNA levels were measured as previously described using the Human Yap1 primer-probe set RTS4814. Yap1 mRNA levels were normalized to actin-beta content, as measured by primer probe set RTS5002. Results are presented in the tables below as percent control of the amount of Yap1 mRNA relative to untreated control cells (% UTC).

Yap1 mRNA [3] = test: Yap1 mRNA in BICR56 cells, RNA analysis (Example 33); format: cell-based, human; details: free uptake, approximately 48 hours
Experimental: Modified oligonucleotides described in the studies above were tested at various doses in squamous cell carcinoma adherent keratinocyte cell line BICR56. A control oligonucleotide 792169 was also tested.
Cultured BICR56 cells at a density of 5000 cells per well were treated using free uptake with modified oligonucleotides diluted to concentrations described in the tables below. After approximately 48 hours, Yap1 mRNA levels were measured as previously described using the Human Yap1 primer-probe set RTS4814. Yap1 mRNA levels were normalized to actin-beta content, as measured by primer probe set RTS5002. Results are presented in the tables below as percent control of the amount of Yap1 mRNA relative to untreated control cells (% UTC).

Yap1 mRNA [4] = test: Yap1 mRNA in Detroit-562 cells, RNA analysis (Example 38); format: cell-based, human; details: free uptake, approximately 48 hours
Experimental: Modified oligonucleotides described in the studies above were tested at various doses in pharynx carcinoma cell line Detroit-562. A control oligonucleotide 792169, described herein above, was also tested.
Cultured Detroit-562 cells at a density of 5000 cells per well were treated using free uptake with modified oligonucleotides diluted to concentrations described in the tables below. After approximately 48 hours, Yap1 mRNA levels were measured as previously described using the Human Yap1 primer-probe set RTS4814. Yap1 mRNA levels were normalized to actin-beta content, as measured by primer probe set RTS5002. Results are presented in the tables below as percent control of the amount of Yap1 mRNA relative to untreated control cells (% UTC).

Yap1 mRNA [5] = test: Yap1 mRNA in SNU-899 cells, RNA analysis (Example 43); format: cell-based, human; details: free uptake, approximately 48 hours
Experimental: Modified oligonucleotides described in the studies above were tested at various doses in laryngeal squamous cell carcinoma cell line SNU-899. A control oligonucleotide 792169, described herein above, was also tested.
Cultured SNU-899 cells at a density of 5000 cells per well were treated using free uptake with modified oligonucleotides diluted to concentrations described in the tables below. After approximately 48 hours, Yap1 mRNA levels were measured as previously described using the Human Yap1 primer-probe set RTS4814. Yap1 mRNA levels were normalized to actin-beta content, as measured by primer probe set RTS5002. Results are presented in the tables below as percent control of the amount of Yap1 mRNA relative to untreated control cells (% UTC).

CAL33 cells = test: Cell proliferation assay in CAL33 cells, CellTiter-Glo (Example 36); format: cell-based, human; details: free uptake, approximately 144 hours
Experimental: as §1
Cultured CAL33 cells at a density of 1000 cells/well were treated using free uptake with modified oligonucleotides diluted to concentrations described in the tables below. After approximately 144 hours, cell proliferation was measured using the luminescent cell viability CellTiter-Glo® 2.0 Assay (Promega). Results are presented in the tables below as percent control of the amount of luminescence in samples treated with modified oligonucleotides relative to untreated control cells (% UTC).

SCC-25 cells = test: Cell proliferation assay in SCC-25 cells, CellTiter-Glo (Example 42); format: cell-based, human; details: free uptake, approximately 144 hours
Experimental: Modified oligonucleotides described in the studies above were tested at various doses in tongue squamous cell carcinoma cell line SCC-25. A control oligonucleotide 792169, described herein above, was also tested.
Cultured SCC-25 cells at a density of 1000 cells/well were treated using free uptake with modified oligonucleotides diluted to concentrations described in the tables below. After approximately 144 hours, cell proliferation was measured using the luminescent cell viability CellTiter-Glo® 2.0 Assay (Promega). Results are presented in the tables below as percent control of the amount of luminescence in samples treated with modified oligonucleotides relative to untreated control cells (% UTC).

[6] = Tolerability in CD-1 mice, plasma chemistry markers (Example 19); format: in vivo; details: male CD-1 mice, 50 mg/kg s.c. twice a week for four weeks (8 treatments), day 26
Experimental: CD-1 mice were treated with modified oligonucleotides selected from studies described above and evaluated for changes in the levels of various plasma chemistry markers.
Groups of four male CD-1 mice at 4-6 weeks of age (obtained from Charles River) were injected subcutaneously twice a week for four weeks (for a total of 8 treatments) with 50 mg/kg of modified oligonucleotides. One group of male CD-1 mice was injected with PBS. Mice were euthanized on day 26 post start of treatment (24 hrs following the final administration).

Row | Substance | human Yap1 mRNA expression (Yap1 mRNA [1]; 0.04 μM) | human Yap1 mRNA expression (Yap1 mRNA [1]; 0.2 μM) | human Yap1 mRNA expression (Yap1 mRNA [1]; 1 μM) | human Yap1 mRNA expression (Yap1 mRNA [1]; 5 μM) | human Yap1 mRNA expression (Yap1 mRNA [2]; 0.04 μM) | human Yap1 mRNA expression (Yap1 mRNA [2]; 0.2 μM) | human Yap1 mRNA expression (Yap1 mRNA [2]; 1 μM) | human Yap1 mRNA expression (Yap1 mRNA [2]; 5 μM) | human Yap1 mRNA expression (Yap1 mRNA [3]; 0.04 μM) | human Yap1 mRNA expression (Yap1 mRNA [3]; 0.2 μM) | human Yap1 mRNA expression (Yap1 mRNA [3]; 1 μM) | human Yap1 mRNA expression (Yap1 mRNA [3]; 5 μM) | human Yap1 mRNA expression (Yap1 mRNA [4]; 0.04 μM) | human Yap1 mRNA expression (Yap1 mRNA [4]; 0.2 μM) | human Yap1 mRNA expression (Yap1 mRNA [4]; 1 μM) | human Yap1 mRNA expression (Yap1 mRNA [4]; 5 μM) | human Yap1 mRNA expression (Yap1 mRNA [5]; 0.04 μM) | human Yap1 mRNA expression (Yap1 mRNA [5]; 0.2 μM) | human Yap1 mRNA expression (Yap1 mRNA [5]; 1 μM) | human Yap1 mRNA expression (Yap1 mRNA [5]; 5 μM) | other results
1 | 715487 (kA*kT*kT*dA*d[5mC]*dT*dT*d[5mC]*dA*dT*dA*dG*d[5mC]*kT*kT*kA) [compound 715487] | 83 % UTC | 70 % UTC | 49 % UTC | 30 % UTC | 81 % UTC | 41 % UTC | 12 % UTC | 6 % UTC | 68 % UTC | 28 % UTC | 16 % UTC | 11 % UTC | 77 % UTC | 29 % UTC | 10 % UTC | 5 % UTC | 62 % UTC | 26 % UTC | 9 % UTC | 4 % UTC | Antiproliferative effect (cell proliferation, luminescence) (CAL33 cells; 0.04 μM): 89 % UTC; Antiproliferative effect (cell proliferation, luminescence) (CAL33 cells; 0.2 μM): 79 % UTC; Antiproliferative effect (cell proliferation, luminescence) (CAL33 cells; 1 μM): 61 % UTC; Antiproliferative effect (cell proliferation, luminescence) (CAL33 cells; 5 μM): 37 % UTC; Antiproliferative effect (cell proliferation, luminescence) (SCC-25 cells; 0.08 μM): 82 % UTC; Antiproliferative effect (cell proliferation, luminescence) (SCC-25 cells; 0.4 μM): 48 % UTC; Antiproliferative effect (cell proliferation, luminescence) (SCC-25 cells; 2 μM): 25 % UTC; Antiproliferative effect (cell proliferation, luminescence) (SCC-25 cells; 10 μM): 15 % UTC
2 | 1198439 (AGTGTATGTCAGAAGA; sugar, 5-methylcytosine, phosphorothioate modifications, further chemistry not given here) [compound 1198439] |  |  |  |  |  |  |  |  |  |  |  |  |  |  |  |  |  |  |  |  | ALT [6]: 210 U/L; AST [6]: 219 U/L; BUN [6]: 18 mg/dL; TBIL [6]: 0.25 mg/dL
3 | CGCCGATAAGGTACAC (cEt gapmer, phosphorothioate backbone, further chemistry not given here) [ION 792169, reference compound] | 94 % UTC | 83 % UTC | 87 % UTC | 100 % UTC | 106 % UTC | 106 % UTC | 91 % UTC | 85 % UTC | 99 % UTC | 92 % UTC | 85 % UTC | 97 % UTC | 102 % UTC | 102 % UTC | 94 % UTC | 99 % UTC | 106 % UTC | 106 % UTC | 111 % UTC | 102 % UTC | Antiproliferative effect (cell proliferation, luminescence) (CAL33 cells; 0.04 μM): 92 % UTC; Antiproliferative effect (cell proliferation, luminescence) (CAL33 cells; 0.2 μM): 93 % UTC; Antiproliferative effect (cell proliferation, luminescence) (CAL33 cells; 1 μM): 81 % UTC; Antiproliferative effect (cell proliferation, luminescence) (CAL33 cells; 5 μM): 67 % UTC; Antiproliferative effect (cell proliferation, luminescence) (SCC-25 cells; 0.08 μM): 97 % UTC; Antiproliferative effect (cell proliferation, luminescence) (SCC-25 cells; 0.4 μM): 101 % UTC; Antiproliferative effect (cell proliferation, luminescence) (SCC-25 cells; 2 μM): 96 % UTC; Antiproliferative effect (cell proliferation, luminescence) (SCC-25 cells; 10 μM): 92 % UTC
4 | 1198872 (TGTATGTCAGAAGAGT; chemically modified gapmer, further chemistry not given here) [compound 1198872] |  |  |  |  |  |  |  |  |  |  |  |  |  |  |  |  |  |  |  |  | ALT [6]: 192 U/L; AST [6]: 207 U/L; BUN [6]: 22 mg/dL; TBIL [6]: 0.25 mg/dL
